Our source for the IC50 values is ChEMBL document CHEMBL1137856, “The pharmacophore hypotheses of I(Kr) potassium channel blockers: novel class III antiarrhythmic agents” (Bioorg Med Chem Lett, 2004).

Sequence of Voltage-gated inwardly rectifying potassium channel KCNH2 (Q12809 whole entry): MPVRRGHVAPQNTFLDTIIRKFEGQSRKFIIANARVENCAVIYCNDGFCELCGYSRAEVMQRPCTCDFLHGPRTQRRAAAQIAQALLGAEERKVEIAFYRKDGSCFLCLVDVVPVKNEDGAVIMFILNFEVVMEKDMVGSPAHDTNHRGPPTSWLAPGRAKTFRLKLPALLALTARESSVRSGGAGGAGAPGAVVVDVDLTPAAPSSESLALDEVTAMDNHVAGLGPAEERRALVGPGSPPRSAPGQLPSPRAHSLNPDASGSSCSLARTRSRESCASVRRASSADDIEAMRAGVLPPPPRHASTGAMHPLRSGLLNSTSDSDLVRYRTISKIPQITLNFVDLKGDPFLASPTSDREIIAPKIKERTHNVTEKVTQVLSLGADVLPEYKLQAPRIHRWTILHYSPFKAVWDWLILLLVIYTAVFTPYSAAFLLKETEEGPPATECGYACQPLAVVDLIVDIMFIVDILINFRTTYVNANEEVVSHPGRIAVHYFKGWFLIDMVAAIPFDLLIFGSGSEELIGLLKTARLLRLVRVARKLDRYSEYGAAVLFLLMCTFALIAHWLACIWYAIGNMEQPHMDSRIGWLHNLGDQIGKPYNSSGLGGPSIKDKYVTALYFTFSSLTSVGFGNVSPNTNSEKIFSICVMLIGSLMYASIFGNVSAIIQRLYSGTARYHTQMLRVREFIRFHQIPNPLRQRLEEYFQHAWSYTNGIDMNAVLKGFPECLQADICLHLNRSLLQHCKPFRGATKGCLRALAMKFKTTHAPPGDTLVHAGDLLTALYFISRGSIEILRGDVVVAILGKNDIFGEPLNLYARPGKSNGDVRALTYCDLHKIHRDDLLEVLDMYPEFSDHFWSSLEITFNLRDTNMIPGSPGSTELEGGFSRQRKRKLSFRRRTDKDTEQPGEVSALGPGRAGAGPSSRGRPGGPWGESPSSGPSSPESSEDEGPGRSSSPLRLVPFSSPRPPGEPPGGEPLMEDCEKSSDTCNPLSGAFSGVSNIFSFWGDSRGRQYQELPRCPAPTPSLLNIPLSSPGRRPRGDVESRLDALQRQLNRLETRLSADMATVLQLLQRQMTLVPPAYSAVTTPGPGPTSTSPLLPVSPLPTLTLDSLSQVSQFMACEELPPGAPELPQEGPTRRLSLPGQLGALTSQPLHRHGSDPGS

The experiment addresses Voltage-gated inwardly rectifying potassium channel KCNH2 (Homo sapiens, UniProt Q12809). In words: Inhibitory concentration against IKr potassium channel.
In turn, `COc1ccc(C2CCN(CC[C@H]3CCOc4ccccc43)CC2)cc1OC` [TERIKALANT] yielded an IC50 of 0.03 µM.
The same measure for `CCCCCCCN(CC)CCCCc1ccc([N+](=O)[O-])cc1`: 0.01 µM.
`CCC1(c2ccccc2)C(=O)NC(=O)NC1=O` [PHENOBARBITAL] yielded an IC50 of 3000 µM.
The same measure for `COc1cc2c(cc1OC)C(Cc1ccc(O)c(Oc3ccc(C[C@@H]4c5cc(OC)c(OC)cc5CCN4C)cc3)c1)N(C)CC2` (single isomer, unassigned) [DAURICINE]: 16 µM.
`COc1ccc(CCNCCCNC(=O)c2ccc([N+](=O)[O-])cc2)cc1OC` returned an IC50 of 0.42 µM.
The same measure for `COc1ccc(CN(CCN(C)C)c2ccccn2)cc1` [PYRILAMINE]: 1.1 µM; for `CCCCN(CCCC)CC(O)c1cc(Cl)cc2c1-c1ccc(Cl)cc1C2=Cc1ccc(Cl)cc1` (stereo not drawn) [LUMEFANTRINE]: 8.1 µM; for `Nc1ccncc1` [DALFAMPRIDINE]: 4400 µM.
The same measure for `CCCCc1oc2ccc(NS(C)(=O)=O)cc2c1C(=O)c1ccc(OCCCN(CCCC)CCCC)cc1` [DRONEDARONE]: 3 µM; for `NCC(O)COc1ccccc1C(=O)CCc1ccccc1` (stereo not drawn) [N-DEPROPYL-PROPAPHENONE]: 44 µM; for `CN1CCN(CCCCN2C(=O)CN(/N=C/c3ccc(-c4ccc(Cl)cc4)o3)C2=O)CC1` [AZIMILIDE]: 0.4 µM.
The result for `COc1ccc(C(=O)N2CCN(c3ccc4c(c3)CCC(=O)N4)CC2)cc1OC` [VESNARINONE] reads 18 µM.
In turn, `CCCNCC(O)COc1ccc(O)cc1C(=O)CCc1ccccc1` (stereo not drawn) [5-HYDROXY PROPAFENONE] came in with an IC50 of 40 µM.

A word on the IC50: it is the concentration that inhibits the measured activity by half.
